The source of these data is ChEMBL document CHEMBL4311995, “Discovery and development of extreme selective inhibitors of the ITD and D835Y mutant FLT3 kinases” (Eur J Med Chem, 2019).

In brackets after ≈: the same amount, converted by molar mass.

In data set [1] the test system is U-937. Nature of the data set: cells. The format is functional, cell-based. As to conditions: Homo sapiens, U-937, 72 h.
The test system of data set [2] is MV4-11. Put plainly: cells. As to conditions: Homo sapiens, MV4-11, 72 h. The format is functional, cell-based.
The nature of data set [3]: cells. The format is ADME, cell-based. The conditions noted are these: Homo sapiens, HS5, 72 h.
The subject of data set [4] is K562. Put plainly: cells. As to conditions: Homo sapiens, K562, 72 h. The format is functional, cell-based.
Data set [5] in a line: in vitro. The conditions noted are these: PAMPA, pH 7.4. A general note: The PAMPA barrier holds no transporters, so it reflects passive diffusion.
Data set [6] is described as follows: physchem. The conditions noted are these: buffer, pH 2.
Data set [7] is described as follows: physchem. As to conditions: buffer, pH 7.4.

Take `COc1cc2c(N3CCN(C(=O)Nc4ccc(OC(C)C)cc4)CC3)ncnc2cc1OCCCN1CCCCC1` [TANDUTINIB]: the IC50 (commonly the point on the concentration scale where inhibition reaches its midpoint) in data set [1] stood at 19.8 µM; in data set [2], 0.06 µM; in data set [3], 11.4 µM; in data set [4] it was 9.21 µM.
Consider `CCN(CC)CCNc1nc(/C=C/c2ccc(C(C)C)cc2)nc2ccc(F)cc12`, for which the IC50 in data set [1] is 4.11 µM; in data set [3], 3.36 µM; in data set [4] it was 2.12 µM. Moreover, the Papp (commonly a coefficient for how fast a substance crosses the barrier) at 5 h in data set [5] stood at 1.74 ×10⁻⁶ cm/s. Besides, the solubility (kinetic) (as a rule, solubility judged after dilution from a stock solution rather than from solid) at 24 h in data set [6] was 120 µM (≈ 48.8 µg/mL); in data set [7] it was 36 µM (≈ 14.6 µg/mL).
Compound `CSc1ccc(/C=C/c2nc(NCCN(C)C)c3ccccc3n2)cc1` gave a Papp at 5 h in data set [5] of 5.86 ×10⁻⁶ cm/s. Besides, the figures for the half-maximal inhibitory concentration (IC50) in data set [3] and in data set [4] were 4 µM and 5.21 µM, respectively. The values for the kinetic solubility at 24 h in data set [6] and in data set [7] were 119 µM (≈ 43.4 µg/mL) and 116 µM (≈ 42.3 µg/mL), respectively.
As to `CN(C)CCNc1nc(/C=C/c2ccc(F)cc2)nc2ccccc12`, the IC50 in data set [1] came to 10.9 µM; in data set [3] it was 6.37 µM; in data set [4], 5.81 µM. For the same compound, the Papp at 5 h in data set [5] is 9.61 ×10⁻⁶ cm/s. Moreover, the kinetic solubility at 24 h in data set [6] amounted to 120 µM (≈ 40.4 µg/mL); in data set [7], 10 µM (≈ 3.36 µg/mL).
In the case of `CC(C)c1ccc(/C=C/c2nc(NCCN(C)C)c3cc(Cl)ccc3n2)cc1`, in data set [5], the Papp at 5 h came to 0.73 ×10⁻⁶ cm/s. For the same compound, the IC50 in data set [3] came out at 3.03 µM; in data set [4], 2.87 µM. Besides, the results for the solubility (kinetic) at 24 h in data set [6] and in data set [7] were 110 µM (≈ 43.4 µg/mL) and 12 µM (≈ 4.74 µg/mL), respectively.
For `CN(C)CCCNc1nc(/C=C/c2ccc(S(C)(=O)=O)cc2)nc2ccc(Cl)cc12`, the IC50 in data set [1] is 9.02 µM; in data set [3] it was 4.03 µM; in data set [4], 4.84 µM. In addition, the Papp at 5 h in data set [5] came to 0.61 ×10⁻⁶ cm/s. Moreover, the kinetic solubility at 24 h was determined as 111 µM (≈ 49.4 µg/mL) in data set [6] and 23 µM (≈ 10.2 µg/mL) in data set [7].
In the case of `CN(C)CCNc1nc(/C=C/c2ccc(S(C)(=O)=O)cc2)nc2ccc(Cl)cc12`, the 50% inhibitory concentration (IC50) in data set [1] came to 12.3 µM; in data set [3] it was 4.76 µM; in data set [4], 6.94 µM. Further, the Papp at 5 h in data set [5] is 0.36 ×10⁻⁶ cm/s. The solubility (kinetic) at 24 h in data set [6] is 112 µM (≈ 48.3 µg/mL); in data set [7], 8 µM (≈ 3.45 µg/mL).
With `CCN(CC)CCNc1nc(/C=C/c2ccc(S(C)(=O)=O)cc2)nc2ccc(Cl)cc12`, the IC50 in data set [1] stood at 4.95 µM; in data set [2], 0.04 µM; in data set [3] it was 4.09 µM; in data set [4], 2.59 µM. In data set [5], this compound yielded a Papp at 5 h of 0.56 ×10⁻⁶ cm/s. In addition, the kinetic solubility at 24 h in data set [6] came to 115 µM (≈ 52.8 µg/mL); in data set [7], 12 µM (≈ 5.51 µg/mL).
As to `CC(C)c1ccc(/C=C/c2nc(NCCN(C)C)c3cc(F)ccc3n2)cc1`, the IC50 was determined as 4.1 µM in data set [1], 0.06 µM in data set [2], 3.28 µM in data set [3] and 4.03 µM in data set [4]. In addition, the Papp at 5 h in data set [5] was 3.38 ×10⁻⁶ cm/s. In addition, the values for the solubility (kinetic) at 24 h in data set [6] and in data set [7] were 119 µM (≈ 45 µg/mL) and 5 µM (≈ 1.89 µg/mL), respectively.
In the case of `CCN(CC)CCCNc1nc(/C=C/c2ccc(OC)cc2)nc2ccc(Br)cc12`, the values for the IC50 in data set [1], in data set [3] and in data set [4] were 6.36 µM, 2.07 µM and 4.03 µM, respectively. In data set [5], the Papp at 5 h amounted to 5.35 ×10⁻⁶ cm/s. In addition, the kinetic solubility at 24 h in data set [6] and in data set [7] was 96 µM (≈ 45.1 µg/mL) each time.
